Experimental data reported in patent publication US20200385489A1, “USING COLIPASE INHIBITORS TO TREAT PANCREATITIS” (Mayo Foundation for Medical Education and Research, priority 2015, published 2020).

B1: Colipase: colipase polypeptide added to the medium (0.25 mcg/mL) as cofactor of pancreatic lipases (protein, UniProt P04118 23-112, looked up)
Colipase: GIIINLENGELCMNSAQCKSNCCQHSSALGLARCTSMASENSECSVKTLYGIYYKCPCERGLTCEGDKTIVGSITNTNFGICHDAGRSKQ

Tests used:
adipocytes = assay: Isoproterenol induced lipolysis in adipocytes (glycerol release); assay type: cell-based; conditions: Iso 10 μM; inhibitor 50 μM
Protocol: (§1) Adipocytes were stimulated by isoproterenol (Iso 10 μM) or co-cultured with pancreatic acini. The adipose triglyceride lipase (ATGL) inhibitor atglistatin or the pancreatic lipase inhibitor orlistat (50 μM each) was added in some conditions.
Glycerol release was measured as a marker of lipolysis in adipocytes. Isoproterenol induced lipolysis in adipocytes.

[1] = test system: Differentiated 3T3-LI adipocytes; assay: LDH leakage from PTL-transfected 3T3-LI adipocytes with colipase; assay type: cell-based; conditions: over 8 hours
Protocol: (§2) Differentiated 3T3-LI adipocytes with lipid droplets were transfected with adenovirus expressing pancreatic triglyceride lipase (PTL) to induce lactate dehydrogenase (LDH) leakage or left as unstimulated controls. The medium was replaced with serum free medium alone or with colipase (0.25 mcg/mL). In some wells the lipase inhibitor orlistat (20 micromolar) was added every 2 hours.
LDH leakage into the medium was measured as a marker of cell injury. […] Colipase increased this to 30-40% LDH leakage compared to controls. […] Glycerol release was measure as a marker of lipolysis. […] Colipase increased glycerol release compared to controls. Glycerol release was prevented by the lipase inhibitor orlistat (FIG. 3B).

[2] = test system: Differentiated 3T3-LI adipocytes; assay: Glycerol release (lipolysis) from PTL-transfected 3T3-LI adipocytes with colipase; assay type: cell-based; conditions: PTL + colipase 0.25 mcg/mL; orlistat 20 micromolar every 2 hours; over 8 hours
Protocol: as §2, with “hours. LDH leakage into the medium was measured as a marker of cell injury. […] Colipase increased this to 30-40% LDH leakage compared to controls. […] Glycerol release was measure as a marker of lipolysis. […] Colipase increased glycerol release compared to controls. Glycerol release was prevented by the lipase inhibitor orlistat (FIG. 3B).” for “hours.”

[3] = test system: Differentiated 3T3-LI adipocytes; assay: IL-6 release from PTL-transfected 3T3-LI adipocytes with colipase (luminex); assay type: cell-based; conditions: PTL + colipase 0.25 mcg/mL; orlistat 20 micromolar every 2 hours
Protocol: (§3) Differentiated 3T3-LI adipocytes with lipid droplets were transfected with adenovirus expressing pancreatic triglyceride lipase (PTL) or left as unstimulated controls. The medium was replaced with serum free medium alone or with colipase (0.25 mcg/mL). In some wells the lipase inhibitor orlistat (20 micromolar) was added every 2 hours. Cytokine release was measured as a marker of inflammatory response. IL-6 release into the medium was measured by luminex. There was a significant release of IL-6 only when both colipase and PTL were present. This release was prevented by orlistat (FIG. 6A).

[4] = test system: Differentiated 3T3-LI adipocytes; assay: MCP-1 release from PTL-transfected 3T3-LI adipocytes with colipase (luminex); assay type: cell-based; conditions: PTL + colipase 0.25 mcg/mL; orlistat 20 micromolar every 2 hours
Protocol: as §3, with “MCP-1” for “IL-6”, “6B).” for “6A).”

[5] = test system: rats with lethal pancreatitis; assay: Caerulein plus glyceryl trioleate lethal pancreatitis in rats; assay type: in vivo, rat; conditions: orlistat 50 mg/kg
Protocol: Pancreatitis was induced in rats and flow cytometry was performed on white blood cells (WBCs) from peripheral blood.
Rats (100 gm rats) were either given caerulein (20 mcg/kg BID (twice a day) intraperitoneally) to induce pancreatitis or left untreated as control animals. Some rats were also given glyceryl trioleate (3 ml intraperitoneally) to induce lactate dehydrogenase (LDH) leakage. Some rats also received the lipase inhibitor orlistat (50 mg/kg). Blood was collected from rats 2 days after induction of caerulein pancreatitis with or without administration of caerulein, glyceryl trioleate, and/or orlistat.

Rat parotid acini = assay: LDH leakage from rat parotid acini exposed to glyceryl trilinoelate, human PTL and human colipase; assay type: cell-based; conditions: glyceryl trilinoelate 300 micromolar + human PTL 1 micrograms/mL + human colipase 0.25 micrograms/mL; orlistat 50 micromolar or serum 1:4 dilution; over 4 hours
Protocol: Cells exposed to glyceryl trilinoelate, PTL, and colipase were treated at a 1:4 dilution with either orlistat (50 micromolar), serum from mice immunized against human colipase, or serum from unimmunized mice. […] (LDH) leakage into the medium was measured over 4 hours.

pancreatic acini = assay: Adipocyte induced necrosis in pancreatic acini (co-culture); assay type: cell-based; conditions: inhibitor 50 μM
Protocol: as §1
Co-culture of adipocytes and pancreatic acini induced necrosis in the acini.

Molecule | Isoproterenol induced lipolysis (glycerol release) (adipocytes) | LDH leakage into the medium (marker of cell injury) ([1]; PTL + colipase 0.25 mcg/mL, orlistat 20 micromolar added every 2 hours) | Glycerol release (marker of lipolysis) [2] | IL-6 release into the medium [3] | MCP-1 release into the medium [4] | Survival ([5]; caerulein + glyceryl trioleate (97% mortality by day 3 without treatment)) | Apoptosis of circulating cells (annexin V positive CD11b) ([5]; caerulein + glyceryl trioleate, blood 2 days after induction) | LDH leakage into the medium (Rat parotid acini) | Adipocyte induced necrosis in pancreatic acini as measured by glycerol release (pancreatic acini) | Adipocyte induced necrosis in pancreatic acini as measured by propidium iodide uptake (pancreatic acini) | LDH leakage compared to controls ([1]; PTL-transfected adipocytes, colipase 0.25 mcg/mL)
CN(C)C(=O)Nc1cccc(-c2ccc(N(C)C)cc2)c1 [atglistatin] | inhibited |  |  |  |  |  |  |  |  |  | 
CCCCCCCCCCC[C@@H](C[C@@H]1OC(=O)[C@H]1CCCCCC)OC(=O)[C@H](CC(C)C)NC=O [orlistat] | but not orlistat, inhibited | completely prevented | prevented | prevented | prevented | survive | prevented | significantly reduced | inhibited | inhibited | 
B1 |  |  |  |  |  |  |  |  |  |  | 30-40%
